# Laboratory results as given in US20070027127A1, “Treatment of inflammatory oral diseases with a combination of inhibitors of TNF-alpha and immunosuppressive agents” (priority 2000, published 2007).
# System: major RAS (recurrent aphthous stomatitis) mouth ulcers
# Experiment: Clinical example: treatment of a human patient with longstanding major RAS
# Type: in vivo
# Protocol: There follows a description of the successful treatment of a human patient according to the invention.
# The patient was a healthy person who had longstanding major RAS. The ulcers were located throughout the patient's mouth and oropharynx. […] The patient, prior to this visit, had been treated with numerous forms of conventional therapy, including systemic steroids and other pharmaceutical agents. All treatments had failed.
# The patient was treated according to the invention as follows. The patient was given PTX tablets (one 400 mg tablet per day), combined with a rinse of the topical steroid DECADRON®.
compound,measurement,setting,value
"CC(=O)CCCCn1c(=O)c2c(ncn2C)n(C)c1=O [PTX, 3,7-Dihydro-3,7-dimethyl-1-(5-oxohexyl)-1H-purine-2,6-dione]",Mouth ulcer status reported by the patient,"approximately six months after initial treatment with PTX tablets plus DECADRON® rinse, then topical DECADRON® rinse on individual lesions",completely without mouth ulcers for the first time in eight years
same,Resolution of the patient's major lesions,"one patient, major RAS, PTX tablets (one 400 mg tablet per day) combined with a DECADRON® rinse, prior conventional therapies failed",completely resolved all of the patient's major lesions
